# Assay results: patent US20220296535A1, “Antibacterial Dosage Regime Using Cannabinoids” (Botanix Pharmaceuticals Limited, priority 2019, published 2022)
# Read-outs that look alike come from different tables or passages of the source.
# Columns and labels:
# [1] = test system: 132 strains of Staphylococcus aureus (106 MRSA and 26 MSSA strains); assay: MIC50/MIC90 micro-broth dilution, all strains
# P. acnes ATCC 6919 = assay: Anaerobic MIC micro-broth dilution; format: cell-based, Cutibacterium acnes (formerly Propionibacterium acnes); settings: P. acnes ATCC 6919, anaerobic chamber, BHI, 48 h
# [2] = Protein binding inferred from loss of activity in 50% human serum; format: in vitro ADME; settings: assuming 3% free responsible for activity
# Protocol: The compounds were serially diluted in mixture of 50% of human serum (Sigma; Cat. No. H3667-100ML) along with 50% Cation-adjusted Mueller Hinton Broth (CaMHB; BD, Cat. No. 212322) two-fold across the wells of polystyrene (PS) 96-well plates (Corning; Cat. No. 3370), plated in duplicate. All plates had flat bottom wells and were covered with low-evaporation lids.
# All control antibiotics gave inhibitory values within the expected ranges.
# [3] = test system: Staphylococcus aureus MRSA ATCC 43300 biofilm; assay: Biofilm minimum inhibitory concentration (Biofilm MIC), crystal violet OD590; format: cell-based
# Protocol: (§1) The collaborator supplied sample as dry material. A stock solution at 10 mg/mL in neat DMSO (11.2 mg in 1.12 mL of DMSO) was prepared. The highest concentration tested in the assay was 128 μg/mL and 2% DMSO as a final concentration using 1/20 dilution to achieve these concentrations.
# Bacteria (Staphylococcus aureus, ATCC 43300; MRSA) was cultured on Tryptic Soy Broth (TSB, BD, Cat. No. 211825) at 37° C. overnight, then it was diluted 1:100 in fresh TSB supplemented with 5% glucose. 100 μL were added across the 96-well of polystyrene (PS) (Corning; Cat. No. 3370) plate, leaving row H as media Control. Plates were incubated at 37° C. for 48 h to generate the biofilm. The plates were prepared in duplicate.
# The antibiotic controls and CBD were serially diluted in TSB with 5% glucose two-fold across the wells of polystyrene (PS) 96-well plates (Corning; Cat. No. 3370), plated in duplicate. All plates had flat bottom wells and were covered with low-evaporation lids.
# 48 h after incubation, bacteria plates were carefully washed three times with 200 μL/well of saline solution (0.9% NaCl, Baxter Healthcare; Cat. No. AHF7124) using manual pipette to remove the planktonic cells but leave the biofilm adhered to the plate wells. Then, 100 μL of diluted controls and CBD were transferred into the washed plates containing the biofilm. Then, these plates were incubated at 37° C. for 24 h.
# Next day, plates were washed three times with saline solution, then fixed with 100 μL/well of 99% methanol for 15 minutes. Once the biofilm was fixed, 100 μL/well 0.1% Crystal Violet Stain (Sigma; Cat No. C0775-25G) was added for 20 minutes and used as indicator of biofilm formation, followed by three times washing and dry well. To dissolve the crystal violet, 150 μL/well of methanol was added to allow for biofilm MIC analysis.
# The biofilm formation was determined by optical density read at 590 nm (OD590). The percentage of biofilm formation was evaluated comparing the average, standard deviation and percentage of confidence of the media control (Row H) against the rest of the plate.
# Analysis was performed using Microsoft Excel.
# C. granulosum ATCC 25564 = assay: Anaerobic MIC micro-broth dilution; format: cell-based, Cutibacterium granulosum; settings: C. granulosum ATCC 25564, anaerobic chamber, BHI, 48 h
# [4] = test system: Staphylococcus aureus ATCC 43300; assay: Broth MIC (Example 1); format: cell-based; settings: Staphylococcus aureus
# Protocol: as §1
# [5] = listed as Cannabidiol (Batch 2)
structure (smiles),measurement,setting,value
"C=C(C)C1CCC(C)=CC1c1c(O)cc(CCCCC)cc1O (centres unmarked) [Cannabidiol, 2-[3-methyl-6-(1-methylethenyl)-2-cyclohexen-1-yl]-5-pentyl-1,3-benzenediol]","Staphylococcus aureus spp. MIC distribution, number of strains",[1]; MIC 0.015 μg/mL,0
same,"Staphylococcus aureus spp. MIC distribution, number of strains",[1]; MIC 0.03 μg/mL,0
same,"Staphylococcus aureus spp. MIC distribution, number of strains",[1]; MIC 0.06 μg/mL,0
same,"Staphylococcus aureus spp. MIC distribution, number of strains",[1]; MIC 0.5 μg/mL,0
same,"Staphylococcus aureus spp. MIC distribution, number of strains",[1]; MIC 1 μg/mL,6
same,"Staphylococcus aureus spp. MIC distribution, number of strains",[1]; MIC 2 μg/mL,106
same,"Staphylococcus aureus spp. MIC distribution, number of strains",[1]; MIC 4 μg/mL,18
same,"Staphylococcus aureus spp. MIC distribution, number of strains",[1]; MIC 8 μg/mL,1
same,"Staphylococcus aureus spp. MIC distribution, number of strains",[1]; MIC 32 μg/mL,0
same,MIC range,[1]; S. aureus spp. ALL,0.25 to 8 µg/mL
same,MIC50,[1]; Staphylococcus aureus,2 µg/mL
same,MIC90,[1]; Staphylococcus aureus,4 µg/mL
same,MIC,"[1]; Staphylococcus aureus, MRSA|MSSA, read-out: MIC across the 132 strains tested",2 to 4 µg/mL
same,MIC,P. acnes ATCC 6919; [5],2/1
same,MIC,P. acnes ATCC 6919; listed as Cannabidiol (CBD),active
same,fraction unbound,[2],< 0.03
same,biofilm MIC,[3],1 to 2 µg/mL
same,biofilm MIC relative to standard vegetative cell MIC,[3],approximately four-fold
same,inhibition of 48 h biofilm formation,[3]; at 2 and 4 μg/mL,up to 75%
same,Biofilm MIC (TSB + 5% Gluc) 07/112/18,"[3]; first biological replicate, two technical replicates, ≥70% inhibition OD590",4 µg/mL
same,Biofilm MIC (TSB + 5% Gluc) 14/112/18,"[3]; second biological replicate, two technical replicates, ≥70% inhibition OD590",2 µg/mL
same,MIC,C. granulosum ATCC 25564; [5],4/2
same,MIC,C. granulosum ATCC 25564; listed as Cannabidiol (CBD),active
same,MIC,"[4]; ATCC43300, CAMHB, read-out: Broth MIC",1 µg/mL
same,MIC,"[4]; ATCC43300, TSB + 5% Glucose, read-out: Broth MIC",0.5 µg/mL
same,MIC,"[4]; ATCC 43300 / MRSA, same strain of MRSA, read-out: standard vegetative cell MIC",0.5 to 1 µg/mL
